Test results taken from US20230002798A1, “PROCESS FOR THE PREPARATION OF A FERMENTABLE SUGAR COMPOSITION AND THE FERMENTATION THEREOF” (WeissBioTech GmbH, priority 2019, published 2023).

Molecular target: Agl1 (Bifidobacterium breve, UniProt C0JP82)
Assay: Product inhibition of pNPG hydrolysis
Conditions: 2 mM pNPG

IC50 (product inhibition): 100 mg/mL
SMILES: OC[C@H]1O[C@H](O[C@H]2[C@H](O)[C@@H](O)C(O)O[C@@H]2CO)[C@H](O)[C@@H](O)[C@@H]1O (mixture of isomers) [maltose]
